In patent US9695155B2, “Herbicidal substituted pyrimidinyloxy benzene compounds” (E. I. DU PONT DE NEMOURS AND COMPANY, priority 2013, dated 2017):

Tests used:
giant foxtail = test: Test C postemergence; assay type: in vivo, Setaria faberii; conditions: for Foxtail, Giant plant response rating / Plant response rating (0 to 100), Foxtail, Giant: postemergence; for Foxtail, Giant plant response rating: visual rating; for Foxtail, Giant plant response rating / Plant response rating, Foxtail, Giant: scale 0 to 100 (0 no effect, 100 complete control); for Plant response rating, Foxtail, Giant: Postemergence
In short: (§1)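 Preemergence: seeds sown in a loam soil–sand blend and sprayed with test chemical in a non-phytotoxic solvent mixture containing surfactant. Postemergence: plants at 2 to 18 cm (1- to 4-leaf stage) in peat-based medium, treated with the same formulation. Greenhouse 13 to 15 days, then visual rating 0 (no effect) to 100 (complete control).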

velvetleaf = test: Test A preemergence; assay type: in vivo, Abutilon theophrasti
In short: (§2)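 Visual 0–100 rating (100 = complete control) taken about 10 d post-treatment relative to untreated checks. Preemergence: directed soil spray on sown loam/sand pots. Postemergence: seedlings 2–10 cm, 1–2 leaf. Non-phytotoxic solvent formulation with surfactant.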

corn [1] = test: Test C postemergence; assay type: in vivo, Zea mays; conditions: for Corn plant response rating / Plant response rating (0 to 100), Corn: postemergence; for Corn plant response rating: visual rating; for Corn plant response rating / Plant response rating, Corn: scale 0 to 100 (0 no effect, 100 complete control); for Plant response rating, Corn: Postemergence
In short: as §1

sedge, umbrella = test: Test B flooded paddy test; assay type: in vivo, Cyperus difformis; conditions: Flood, 250 g ai/ha; 0 to 100 scale where 0 is no effect and 100 is complete control
In short: (§3)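 Plants were grown to the 2-leaf stage, then pots were flooded to 3 cm above the soil and compounds were applied directly into the paddy water. That depth was held throughout, and after 13 to 15 days in the greenhouse injury was rated visually against controls on a 0–100 scale (0 no effect, 100 complete control).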

morningglory [2] = test: Test C postemergence; assay type: in vivo, Ipomoea coccinea; conditions: for Plant response rating, Morningglory: Postemergence
In short: as §1

morningglory [3] = test: Test A preemergence; assay type: in vivo, Ipomoea spp.; conditions: for Morningglory plant response rating: 0 to 100 scale, 0 no effect, 100 complete control, approx. 10 days
In short: as §2

barnyardgrass [4] = test: Test B flooded paddy test; assay type: in vivo, Echinochloa crus-galli; conditions: Flood, 250 g ai/ha; 0 to 100 scale where 0 is no effect and 100 is complete control
In short: as §3

wheat, winter = test: Test C postemergence; assay type: in vivo, Triticum aestivum; conditions: for Plant response rating, Wheat: Postemergence
In short: as §1

yellow nutsedge = test: Test C postemergence; assay type: in vivo, Cyperus esculentus; conditions: for Plant response rating, Nutsedge, Yellow: Postemergence
In short: as §1

corn [5] = test: Test A preemergence; assay type: in vivo, Zea mays; conditions: for Corn plant response rating: 0 to 100 scale, 0 no effect, 100 complete control, approx. 10 days
In short: as §2

rice = test: Test B flooded paddy test; assay type: in vivo, Oryza sativa; conditions: Flood, 250 g ai/ha; 0 to 100 scale where 0 is no effect and 100 is complete control
In short: as §3

soybean = test: Test C postemergence; assay type: in vivo, Glycine max; conditions: for Plant response rating, Soybean: Postemergence
In short: as §1

barnyardgrass [6] = test: Test A postemergence; assay type: in vivo, Echinochloa crus-galli
In short: as §2

Heteranthera limosa = test: Test B flooded paddy test; assay type: in vivo; conditions: Flood, 250 g ai/ha; 0 to 100 scale where 0 is no effect and 100 is complete control
In short: as §3

wheat = test: Test A postemergence; assay type: in vivo, Triticum aestivum
In short: as §2

large (Lg) crabgrass = test: Test A preemergence; assay type: in vivo, Digitaria sanguinalis; conditions: for Crabgrass, Large plant response rating: 0 to 100 scale, 0 no effect, 100 complete control, approx. 10 days
In short: as §2

ragweed = test: Test C postemergence; assay type: in vivo, Ambrosia elatior; conditions: for Plant response rating, Ragweed: Postemergence
In short: as §1

[7] = 125 g ai/ha, 0 to 100 scale where 0 is no effect and 100 is complete control
[8] = 31 g ai/ha, scale 0 to 100 (0 no effect, 100 complete control), 13 to 15 days
[9] = 62 g ai/ha, scale 0 to 100 (0 no effect, 100 complete control)
[10] = 500 g ai/ha, 0 to 100 scale where 0 is no effect and 100 is complete control
[11] = 8 g ai/ha, 0 is no effect, 100 is complete control
[12] = 16 g ai/ha, 0 is no effect, 100 is complete control
[13] = 8 g ai/ha, postemergence, 0 is no effect, 100 is complete control
[14] = 16 g ai/ha, postemergence, 0 is no effect, 100 is complete control
[15] = 31 g ai/ha, postemergence, visual rating, scale 0 to 100 (0 no effect, 100 complete control), 13 to 15 days
[16] = 62 g ai/ha, scale 0 to 100 (0 no effect, 100 complete control), 13 to 15 days
[17] = 1000 g ai/ha, 0 to 100 scale, 0 no effect, 100 complete control

N#Cc1cccc(Oc2ncc(Cl)cn2)c1-n1cc(OC(F)F)cn1 [Compound 97]
40: Plant response rating, Barnyardgrass (barnyardgrass [4]) | Plant response rating, Corn (corn [5]; [7]) | Plant response rating, Ragweed (ragweed; [8])
90: Plant response rating, Sedge, Umbrella (sedge, umbrella) | Plant response rating, Soybean (soybean; [9]) | Plant response rating, Barnyardgrass (barnyardgrass [6]; [7])
85: Plant response rating, Morningglory (morningglory [2]; [8]) | Plant response rating, Morningglory (morningglory [2]; [9])
100: Plant response rating, Velvetleaf (velvetleaf; [7]) | Plant response rating, Morningglory (morningglory [3]; [7]) | Morningglory plant response rating (morningglory [3]; 500 g ai/ha) | Plant response rating, Barnyardgrass (barnyardgrass [6]; [10]) | Plant response rating, Crabgrass, Large (large (Lg) crabgrass; [7]) | Crabgrass, Large plant response rating (large (Lg) crabgrass; 500 g ai/ha)
70: Plant response rating, Wheat (wheat; [10]) | Plant response rating (0 to 100), Ragweed (ragweed; 125 g ai/ha, postemergence)
60: Corn plant response rating (corn [5]; 500 g ai/ha) | Plant response rating, Soybean (soybean; [8]) | Plant response rating, Ragweed (ragweed; [9])
95: Plant response rating (0 to 100), Morningglory (morningglory [2]; 125 g ai/ha, postemergence) | Plant response rating (0 to 100), Soybean (soybean; 125 g ai/ha, postemergence) | Plant response rating, Ducksalad (Heteranthera limosa)
5: Plant response rating, Foxtail, Giant (giant foxtail; 31 g ai/ha, 13 to 15 days) | Corn plant response rating (corn [1]; 16 g ai/ha, 13 to 15 days) | Plant response rating, Corn (corn [1]; 31 g ai/ha, 13 to 15 days) | Plant response rating, Wheat (wheat, winter; [8]) | Plant response rating, Wheat (wheat, winter; [9]) | Plant response rating (0 to 100), Nutsedge, Yellow (yellow nutsedge; 125 g ai/ha, postemergence) | Plant response rating, Nutsedge, Yellow (yellow nutsedge; [8]) | Plant response rating, Nutsedge, Yellow (yellow nutsedge; [9])
15: Plant response rating (0 to 100), Foxtail, Giant (giant foxtail; 125 g ai/ha) | Plant response rating (0 to 100), Corn (corn [1]; 125 g ai/ha)
0: Plant response rating, Rice (rice)
10: Foxtail, Giant plant response rating (giant foxtail; 16 g ai/ha, 13 to 15 days) | Plant response rating, Foxtail, Giant (giant foxtail; 62 g ai/ha) | Plant response rating, Corn (corn [1]; 62 g ai/ha) | Plant response rating (0 to 100), Wheat (wheat, winter; 125 g ai/ha, postemergence)
50: Plant response rating, Wheat (wheat; [7])

Clc1cnc(Oc2ccccc2-n2cc(I)nn2)nc1 [Compound 222]
40: Plant response rating (0 to 100), Morningglory (morningglory [2]; [13]) | Plant response rating (0 to 100), Soybean (soybean; [13]) | Plant response rating, Wheat (wheat; [17]) | Plant response rating (0 to 100), Ragweed (ragweed; [14])
100: Velvetleaf plant response rating (velvetleaf; 1000 g ai/ha, 0 to 100 scale, 0 no effect, 100 complete control, approx. 10 days) | Morningglory plant response rating (morningglory [3]; 1000 g ai/ha) | Plant response rating, Barnyardgrass (barnyardgrass [6]; [17]) | Crabgrass, Large plant response rating (large (Lg) crabgrass; 1000 g ai/ha)
65: Soybean plant response rating (soybean; [15])
0: Plant response rating (0 to 100), Foxtail, Giant (giant foxtail; [11]) | Plant response rating (0 to 100), Corn (corn [1]; [11]) | Plant response rating, Corn (corn [1]; 62 g ai/ha, 13 to 15 days) | Plant response rating, Barnyardgrass (barnyardgrass [4]) | Plant response rating (0 to 100), Wheat (wheat, winter; [13]) | Plant response rating (0 to 100), Wheat (wheat, winter; [14]) | Wheat plant response rating (wheat, winter; [15]) | Plant response rating (0 to 100), Nutsedge, Yellow (yellow nutsedge; [13]) | Plant response rating, Rice (rice)
55: Plant response rating (0 to 100), Soybean (soybean; [14])
90: Plant response rating (0 to 100), Morningglory (morningglory [2]; [14])
50: Plant response rating, Ducksalad (Heteranthera limosa)
20: Plant response rating (0 to 100), Ragweed (ragweed; [13])
60: Corn plant response rating (corn [5]; 1000 g ai/ha) | Plant response rating, Soybean (soybean; [16]) | Plant response rating, Ragweed (ragweed; [16])
5: Plant response rating (0 to 100), Foxtail, Giant (giant foxtail; [12]) | Foxtail, Giant plant response rating (giant foxtail; 31 g ai/ha, 13 to 15 days) | Plant response rating, Foxtail, Giant (giant foxtail; 62 g ai/ha, 13 to 15 days) | Plant response rating (0 to 100), Corn (corn [1]; [12]) | Corn plant response rating (corn [1]; 31 g ai/ha, 13 to 15 days) | Plant response rating, Wheat (wheat, winter; [16]) | Plant response rating (0 to 100), Nutsedge, Yellow (yellow nutsedge; [14]) | Nutsedge, Yellow plant response rating (yellow nutsedge; [15]) | Plant response rating, Nutsedge, Yellow (yellow nutsedge; [16])
45: Morningglory plant response rating (morningglory [2]; [15]) | Ragweed plant response rating (ragweed; [15])
70: Plant response rating, Sedge, Umbrella (sedge, umbrella) | Plant response rating, Morningglory (morningglory [2]; [16])
